Data taken from ChEMBL document CHEMBL1671648, “Molecular epidemiology of outbreak-related pseudomonas aeruginosa strains carrying the novel variant blaVIM-17 metallo-beta-lactamase gene” (2009).
Values after ≈ are worked out from the molar mass of the structure shown.

Columns and labels:
[1] = test system: Pseudomonas aeruginosa; assay: Antibacterial activity against blaVIM-2-positive Pseudomonas aeruginosa by CLSI Etest method; format: functional
[2] = test system: Pseudomonas aeruginosa; assay: Antibacterial activity against blaVIM-2-positive Pseudomonas aeruginosa by CLSI broth microdilution method; format: functional

| Structure (SMILES) | MIC [1] [µg/mL] | MIC [2] [µg/mL] |
| --- | --- | --- |
| C[C@@H](O)[C@H]1C(=O)N2C(C(=O)O)=C(SCCNC=N)C[C@H]12 [IMIPENEM ANHYDROUS] | ≥ 128 |  |
| C[C@@H](O)[C@H]1C(=O)N2C(C(=O)O)=C(S[C@@H]3CN[C@H](C(=O)N(C)C)C3)[C@H](C)[C@H]12 [MEROPENEM] |  | 32 (≈ 83.4 µM) |
